# Target: T1, soybean lipoxygenase (Glycine max, UniProt P08170)
# T1 sequence (P08170 1-839): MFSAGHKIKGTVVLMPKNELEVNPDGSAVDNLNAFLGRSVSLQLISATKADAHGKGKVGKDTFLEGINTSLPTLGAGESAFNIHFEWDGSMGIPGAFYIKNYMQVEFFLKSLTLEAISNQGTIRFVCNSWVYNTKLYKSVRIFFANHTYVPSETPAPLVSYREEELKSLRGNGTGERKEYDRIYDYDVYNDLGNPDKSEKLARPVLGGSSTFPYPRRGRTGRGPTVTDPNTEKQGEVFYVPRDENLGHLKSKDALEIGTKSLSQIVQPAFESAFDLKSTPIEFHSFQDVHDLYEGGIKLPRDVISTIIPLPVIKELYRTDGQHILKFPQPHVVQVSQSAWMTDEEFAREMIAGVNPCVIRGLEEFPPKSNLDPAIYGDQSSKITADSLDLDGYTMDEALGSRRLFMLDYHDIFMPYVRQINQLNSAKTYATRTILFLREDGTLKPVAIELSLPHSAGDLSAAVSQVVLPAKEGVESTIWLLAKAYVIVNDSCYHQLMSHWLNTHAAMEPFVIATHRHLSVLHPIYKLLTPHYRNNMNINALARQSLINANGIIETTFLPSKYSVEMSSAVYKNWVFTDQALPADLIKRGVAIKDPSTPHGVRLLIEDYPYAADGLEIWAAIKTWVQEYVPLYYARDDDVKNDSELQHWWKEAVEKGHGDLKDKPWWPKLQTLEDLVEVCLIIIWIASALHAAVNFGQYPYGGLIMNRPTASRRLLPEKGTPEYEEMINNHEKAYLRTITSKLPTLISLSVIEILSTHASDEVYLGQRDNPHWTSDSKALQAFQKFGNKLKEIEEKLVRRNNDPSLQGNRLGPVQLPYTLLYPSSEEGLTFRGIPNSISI
# Assay: Lipoxygenase Screen: inhibition of soybean lipoxygenase activity
# Assay type: biochemical
# Settings: 25° C., pH 9.0, 1000 I.U. soybean lipoxygenase, 0.017 mM arachidonic acid, 5 min preincubation; range in parentheses not explained; Example 9 as N-methylglucamine salt
# Procedure: Inhibition of lipoxygenase activity was measured at 25° C. in a buffered incubation system (0.2M sodium borate, pH 9.0) comprising 1000 I.U. soybean lipoxygenase, 0.017 mM arachidonic acid, and compound (0-0.050 mM, dissolved in absolute ethanol:0.9% w/v saline, 30:70 v/v) in a total volume of 2.5 ml. Enzyme and compound were preincubated together at 25° C. for 5 minutes prior to initiation of the lipoxygenase reaction by the addition of the arachidonic acid. Lipoxygenase activity was measured as the rate of the initial increase in absorbance at 235 nm due to the formation of peroxidised forms of arachidonic acid. Inhibitory activity was measured at at least three compound concentrations and the 50% inhibitory concentration determined from the plot of % inhibition versus compound concentration.
row,SMILES,IC50 [µM]
1,"CCCCCCCCCCCC#Cc1ccc(/C=C/C(=O)OC)cc1 [Example 4, Methyl 4-(1-tridecynyl)cinnamate]",142
2,"CCCCCCCCCCCC#Cc1ccc(/C=C/C(=O)O)cc1 [Example 9, 4-(1-Tridecynyl)cinnamic acid]",272
3,CCCCCCCCCCCC#Cc1ccccc1/C=C/C(=O)O [Example 12],85.7
4,"CCCCCCCCCCC/C=C\c1ccc(/C=C/C(=O)OC)cc1 [Example 15, Methyl 4-[(Z)-1-tridecenyl]cinnamate]",230
5,"CCCCCCCCCCC/C=C/c1ccc(/C=C/C(=O)O)cc1 [Example 24, 4-[(E)-1-Tridecenyl]cinnamic acid]",30
6,CCCCCCCCCCC/C=C\c1ccc(/C=C/C(=O)O)cc1 [Example 25],35.9
7,CCCCCCCCC/C=C/c1ccc(/C=C/C(=O)O)cc1 [Example 26],52.3
8,CCCCCCCCC/C=C\c1ccc(/C=C/C(=O)O)cc1 [Example 27],46.6
9,CCCCCCCCCCC/C=C\c1ccccc1/C=C/C(=O)O [Example 30],23.2
10,"CCCCCCCCCCCC#Cc1ccccc1CCC(=O)O [Example 42, 3[2-(1-Tridecynyl)phenyl]propanoic acid]",20
11,"CCCCCCCCCCC/C=C\c1ccccc1CCC(=O)O [Example 43, 3-{2-[(Z)-1-Tridecenyl]phenyl}propanoic acid]",18.4
12,"CCCCCCCCCCC/C=C\c1ccccc1OCCCC(=O)OCC [Example 55, (Z) Ethyl 4-[2-(1-tridecenyl)phenoxy)-butanoate]",55.4
13,"CCCCCCCCCCC/C=C\c1ccccc1OCCCC(=O)O [Example 62, (Z) 4-[2-(1-tridecenyl)phenoxy]-butanoic acid]",4.2
14,CCCCCCCCCCC/C=C\c1ccc(OCC(=O)O)cc1 [Example 89],124
15,CCCCCCCCCC/C=C\c1ccc(OCCC(=O)O)cc1 [Example 90],75.3
16,CCCCCCCCC/C=C\c1ccc(OCCCC(=O)O)cc1 [Example 92],42.8

# Target: T2, cyclo-oxygenase (Bos taurus, UniProt O62664)
# T2 construct: lyophilised bovine seminal vesicle microsomes; from tissue; host or cells: bovine seminal vesicle microsomes
# T2 sequence (O62664 25-600): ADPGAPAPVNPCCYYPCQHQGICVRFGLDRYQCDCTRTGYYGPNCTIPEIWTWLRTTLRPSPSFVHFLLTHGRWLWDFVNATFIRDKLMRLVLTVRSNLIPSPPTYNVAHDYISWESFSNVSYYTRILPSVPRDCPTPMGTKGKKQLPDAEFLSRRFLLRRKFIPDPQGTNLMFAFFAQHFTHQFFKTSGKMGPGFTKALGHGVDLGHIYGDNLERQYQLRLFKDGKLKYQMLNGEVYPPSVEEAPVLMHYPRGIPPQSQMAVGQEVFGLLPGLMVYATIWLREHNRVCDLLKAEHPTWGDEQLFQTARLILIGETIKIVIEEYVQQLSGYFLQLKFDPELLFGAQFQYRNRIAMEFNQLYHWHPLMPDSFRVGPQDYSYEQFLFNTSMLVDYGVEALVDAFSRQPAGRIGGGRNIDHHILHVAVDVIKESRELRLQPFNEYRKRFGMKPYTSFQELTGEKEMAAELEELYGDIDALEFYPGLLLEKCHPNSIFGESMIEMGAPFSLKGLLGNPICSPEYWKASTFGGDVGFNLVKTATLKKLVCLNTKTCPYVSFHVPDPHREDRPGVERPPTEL
# Assay: Cyclo-oxygenase Screen: inhibition of cyclo-oxygenase in bovine seminal vesicle microsomes
# Assay type: biochemical
# Settings: 50 μM compound, pH 8.0, 37° C., 5 min preincubation, 2 min reaction, 5-15 μM arachidonic acid, read-out: Cyclooxygenase Inhibition at 50 μM
# Procedure: (2) Cyclo-oxygenase Screen
# The inhibition of cyclo-oxygenase was measured in a buffered incubation (0.2M Tris-HCI, pH 8.0 containing 1 mM ethylene diaminetetraacetic acid) comprising 0.96 mg lyophilised bovine seminal vesicle microsomes, 5-15 μM arachidonic acid containing 0.2 μCi [1--^14 C] arachidonic acid, 2 mM glutathione, […], 1 μM haemoglobin and compound (0-0.05 mM in 5 μl dimethylsulphoxide or absolute ethanol) in a total volume of 2.0 ml. Compounds were preincubated with the incubation constitutents for 5 min at 37° C. before the reaction was started by the addition of the arachidonic acid. The reaction was continued at 37° C. for 2 min, then stopped by placing the incubations on ice and the addition of 1.2 ml 0.2M citric acid. Unmetabolised substrate and prostaglandin products were extracted in ethyl acetate (2×4 ml), the combined extracts washed with 0.8 ml water, and separated by thin-layer chromatography (Kieselgel GF254 plates in ethyl acetate:acetone:glacial acetate acid, 90:10:1, v/v). Recovery was 65-80%. The regions on the thin-layer chromatography plate that chromatographed with authentic arachidonic acid or prostaglandins E2 and F2 α (Rf 's 0.70. 0.28 and 0.16 respectively) were scraped and the radioactivity in each determined by liquid scintillation counting with a correction for quenching being made by the external standard-channels ratio method. Inhibition of cyclo-oxygenase activity was calculated from the decrease in prostaglandin formation. Each compound concentration was tested in triplicate and the 50% inhibitory concentration, if determined, was calculated by linear regression from the inhibitory data at, at least three different compound concentrations.
row,SMILES,inhibition at 50 µM [%]
1,CCCCCCCCCCCC#Cc1ccccc1/C=C/C(=O)O [Example 12],86.5
2,CCCCCCCCCCCC#Cc1cccc(/C=C/C(=O)O)c1 [Example 13],79.8
3,"CCCCCCCCCCC/C=C/c1ccc(/C=C/C(=O)O)cc1 [Example 24, 4-[(E)-1-Tridecenyl]cinnamic acid]",52
4,CCCCCCCCCCC/C=C\c1ccc(/C=C/C(=O)O)cc1 [Example 25],25.6
5,CCCCCCCCC/C=C/c1ccc(/C=C/C(=O)O)cc1 [Example 26],52
6,CCCCCCCCC/C=C\c1ccc(/C=C/C(=O)O)cc1 [Example 27],70.5
7,CCCCCCCCCCCCC/C=C\c1ccc(/C=C/C(=O)O)cc1 [Example 29],66.5
8,CCCCCCCCCCC/C=C\c1ccccc1/C=C/C(=O)O [Example 30],26
9,CCCCCCCCCCC/C=C\c1cccc(/C=C/C(=O)O)c1 [Example 31],91
10,"CCCCCCCCCCC/C=C\c1ccc(CCC(=O)O)cc1 [Example 40, 3-{4-[(Z)-1-Tridecenyl]phenyl}propanoic acid]",67
11,"CCCCCCCCCCC/C=C/c1ccc(CCC(=O)O)cc1 [Example 41, 3-{4-[(E)-1-Tridecenyl]phenyl}propanoic acid]",40
12,"CCCCCCCCCCCC#Cc1ccccc1CCC(=O)O [Example 42, 3[2-(1-Tridecynyl)phenyl]propanoic acid]",80
13,"CCCCCCCCCCC/C=C\c1ccccc1CCC(=O)O [Example 43, 3-{2-[(Z)-1-Tridecenyl]phenyl}propanoic acid]",62.7
14,"CCCCCCCCCCC/C=C\c1ccccc1OCC(=O)O [Example 60, (Z) 2-[2-(1-tridecenyl)-phenoxy]ethanoic acid]",92.4
15,"CCCCCCCCCCC/C=C\c1ccccc1OCCC(=O)O [Example 61, (Z) 3-[2-(1-tridecenyl)phenoxy]-propanoic acid]",78.9
16,"CCCCCCCCCCC/C=C\c1ccccc1OCCCC(=O)O [Example 62, (Z) 4-[2-(1-tridecenyl)phenoxy]-butanoic acid]",67
17,CCCCCCCC/C=C\c1ccccc1OCCCC(=O)O [Example 82],72
18,CCCCCCCCCCC/C=C/c1ccccc1OCCCC(=O)O [Example 85],64
19,CCCCCCCCCCC/C=C/c1ccccc1OCCCCC(=O)O [Example 87],67
20,CCCCCCCCCCC/C=C\c1ccc(OCC(=O)O)cc1 [Example 89],51

# Reference: patent publication US4713486A, “Novel compounds” (Beecham Group p.l.c., priority 1982, dated 1987)
